Legend:
ALOMY [1] = assay: Herbicidal post-emergence action 1a (greenhouse pots, visual rating); type: in vivo, Alopecurus myosuroides; details: Dosage 80 g/ha; rated visually about 3 weeks after treatment; 100% = plants have died, 0% = like control plants
Procedure, shortened: (§1)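 Visual scoring versus untreated plants (100% = plants dead, 0% = as control) followed roughly 3 weeks in the greenhouse after treatment. Plants grown in sandy loam pots had been sprayed on green parts at the one-leaf stage, 2–3 weeks post-sowing, with aqueous WP/EC preparations containing 0.5% additive, 600 l/ha, at 320 and/or 80 g/ha.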

AVEFA [2] = assay: as above; type: in vivo, Avena fatua; details: Dosage 80 g/ha; rated visually about 3 weeks after treatment; 100% = plants have died, 0% = like control plants
Procedure, shortened: as §1

DIGSA [3] = assay: as above; type: in vivo, Digitaria sanguinalis; details: rated visually about 3 weeks after treatment, 100% = plants have died, 0% = like control plants
Description: (§2) [table] a) Seeds of monocotyledonous and dicotyledonous weeds and crop plants are placed in sandy loam in plastic or organic plant pots, covered with soil and cultivated in a greenhouse under controlled growth conditions. 2 to 3 weeks after sowing, the test plants are treated at the one-leaf stage. The compounds of the invention, formulated in the form of wettable powders (WP) or as emulsion concentrates (EC), are then sprayed onto the green parts of the plants as aqueous suspension or emulsion with addition of 0.5% additive at a water application rate of 600 1/ha (converted). After the test plants have been kept in the greenhouse under optimum growth conditions for about 3 weeks, the activity of the preparations is rated visually in comparison to untreated controls. For example, 100% activity=the plants have died, 0% activity=like control plants. Tables A1 to A15 below show the effects of selected compounds of the general formula (I) according to Tables 1 and 2 on various harmful plants and an application rate corresponding to 320 g/ha and/or 80 g/ha, which were obtained by the experimental procedure mentioned above.

ECHCG [4] = assay: as above; type: in vivo, Echinochloa crus-galli; details: rated visually about 3 weeks after treatment, 100% = plants have died, 0% = like control plants
Procedure, shortened: as §1

LOLRI = assay: as above; type: in vivo, Lolium rigidum; details: Dosage 80 g/ha; rated visually about 3 weeks after treatment; 100% = plants have died, 0% = like control plants
Procedure, shortened: as §1

ABUTH = assay: as above; type: in vivo, Abutilon theophrasti; details: dosage 320 g/ha, visual rating about 3 weeks after treatment
Procedure, shortened: as §1

AMARE [5] = assay: as above; type: in vivo, Amaranthus retroflexus; details: dosage 80 g/ha, visual rating about 3 weeks after treatment
Procedure, shortened: as §1

MATIN = assay: as above; type: in vivo, Matricaria inodora; details: dosage 320 g/ha, visual rating about 3 weeks after treatment
Procedure, shortened: as §1

PHBPU = assay: as above; type: in vivo, Pharbitis purpurea; details: dosage 80 g/ha, visual rating about 3 weeks after treatment
Procedure, shortened: as §1

POLCO [6] = assay: as above; type: in vivo, Polygonum convolvulus; details: dosage 80 g/ha, visual rating about 3 weeks after treatment
Procedure, shortened: as §1

STEME [7] = assay: as above; type: in vivo, Stellaria media; details: Dosage 80 g/ha; rated visually about 3 weeks after treatment; 100% = plants have died, 0% = like control plants
Procedure, shortened: as §1

VIOTR [8] = assay: as above; type: in vivo, Viola tricolor; details: dosage 80 g/ha, visual rating about 3 weeks after treatment
Procedure, shortened: as §1

VERPE [9] = assay: as above; type: in vivo, Veronica persica; details: dosage 80 g/ha, visual rating about 3 weeks after treatment
Procedure, shortened: as §1

HORMU [10] = assay: as above; type: in vivo, Hordeum murinum; details: rated visually about 3 weeks after treatment, 100% = plants have died, 0% = like control plants
Description: as §2

ALOMY [11] = assay: Herbicidal pre-emergence action 2a (greenhouse pots, visual scoring); type: in vivo, Alopecurus myosuroides; details: dosage 320 g/ha, visual scoring after about 3 weeks
Procedure, shortened: (§3)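 Pre-emergence greenhouse pot test: WP or EC formulations sprayed onto covering soil over sown seeds at 600 l/ha water with 0.5% additive, at rates corresponding to 320 g/ha and/or 80 g/ha. Visual % activity versus untreated controls after about 3 weeks (100% = plants dead).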

AVEFA [12] = assay: as above; type: in vivo, Avena fatua; details: dosage 320 g/ha, visual scoring after about 3 weeks
Procedure, shortened: as §3

DIGSA [13] = assay: as above; type: in vivo, Digitaria sanguinalis; details: dosage 320 g/ha, visual scoring after about 3 weeks
Procedure, shortened: as §3

ECHCG [14] = assay: as above; type: in vivo, Echinochloa crus-galli; details: dosage 320 g/ha, visual scoring after about 3 weeks
Procedure, shortened: as §3

SETVI = assay: as above; type: in vivo, Setaria viridis; details: dosage 320 g/ha, visual scoring after about 3 weeks vs untreated controls
Procedure, shortened: as §3

AMARE [15] = assay: as above; type: in vivo, Amaranthus retroflexus; details: dosage 320 g/ha, visual scoring after about 3 weeks vs untreated controls
Procedure, shortened: as §3

POLCO [16] = assay: as above; type: in vivo, Polygonum convolvulus; details: dosage 320 g/ha, visual scoring after about 3 weeks vs untreated controls
Procedure, shortened: as §3

STEME [17] = assay: as above; type: in vivo, Stellaria media; details: dosage 320 g/ha, visual scoring after about 3 weeks vs untreated controls
From the text: (§4) [table] a) Seeds of monocotyledonous and dicotyledonous weed plants and crop plants are placed in plastic or organic plant pots and covered with soil. The compounds of the invention, formulated in the form of wettable powders (WP) or as emulsion concentrates (EC), are then applied onto the surface of the covering soil as aqueous suspension or emulsion with addition of 0.5% additive at a water application rate of 600 1/ha (converted). After the treatment, the pots are placed in a greenhouse and kept under good growth conditions for the trial plants. After about 3 weeks, the effect of the preparations is scored visually in comparison with untreated controls as percentages. For example, 100% activity=the plants have died, 0% activity=like control plants. Tables B1 to B15 below show the effects of selected compounds of the general formula (I) according to Tables 1 and 2 on various harmful plants and an application rate corresponding to 320 g/ha and/or 80 g/ha, which were obtained by the experimental procedure mentioned above.

VIOTR [18] = assay: as above; type: in vivo, Viola tricolor; details: dosage 320 g/ha, visual scoring after about 3 weeks vs untreated controls
Procedure, shortened: as §3

VERPE [19] = assay: as above; type: in vivo, Veronica persica; details: dosage 320 g/ha, visual scoring after about 3 weeks vs untreated controls
Procedure, shortened: as §3

HORMU [20] = assay: as above; type: in vivo, Hordeum murinum; details: dosage 320 g/ha, visual scoring after about 3 weeks vs untreated controls
From the text: as §4

harmful plants = assay: Herbicidal pre-emergence action 2a, summary across species; type: in vivo; details: Tables B1 to B15 (320 g/ha and/or 80 g/ha)
From the text: as §4, with “a)” for “[table] a)”, “plants.” for “plants. Tables B1 to B15 below show the effects of selected compounds of the general formula (I) according to Tables 1 and 2 on various harmful plants and an application rate corresponding to 320 g/ha and/or 80 g/ha, which were obtained by the experimental procedure mentioned above.”
Tables B1 to B15 below show the effects of selected compounds of the general formula (I) according to Tables 1 and 2 on various harmful plants and an application rate corresponding to 320 g/ha and/or 80 g/ha, which were obtained by the experimental procedure mentioned above.
For example, compound nos. I-07, I-08, I-11, I-12, I-13, I-16, I-17, I-20, I-36, I-37, I-39, I-45, I-46, I-48, I-52 and I-53 in the pre-emergence method have very good action (80% to 100% herbicidal activity) against harmful plants such as Alopecurus myosuroides, Amaranthus retroflexus, Digitaria sanguinalis, Lolium rigidum, Polygonum convolvulus, Setaria viridis, Veronica persica and Viola tricolor at an application rate of 0.32 kg of active substance per hectare.

## C=CCOC(=O)C(C)Oc1nn(-c2cnccn2)c(-c2ccc(F)nc2)c1Br (racemic) [Example I-13]
ALOMY [1]
  Post-emergence action against ALOMY in %: 90%
AVEFA [2]
  Post-emergence action against AVEFA in %: 100%
DIGSA [3]; Dosage 80 g/ha
  Post-emergence action against DIGSA in %: 80%
DIGSA [3]; Dosage 320 g/ha
  Post-emergence action against DIGSA in %: 90%
ECHCG [4]; Dosage 80 g/ha
  Post-emergence action against ECHCG in %: 80%
ECHCG [4]; Dosage 320 g/ha
  Post-emergence action against ECHCG in %: 90%
LOLRI
  Post-emergence action against LOLRI in %: 80%
ABUTH
  Post-emergence action against ABUTH in %: 80%
AMARE [5]
  Post-emergence action against AMARE in %: 80%
MATIN
  Post-emergence action against MATIN in %: 80%
PHBPU
  Post-emergence action against PHBPU in %: 80%
POLCO [6]
  Post-emergence action against POLCO in %: 80%
STEME [7]
  Post-emergence action against STEME in %: 90%
VIOTR [8]
  Post-emergence action against VIOTR in %: 90%
VERPE [9]
  Post-emergence action against VERPE in %: 90%
HORMU [10]; Dosage 80 g/ha
  Post-emergence action against HORMU in %: 90%
HORMU [10]; Dosage 320 g/ha
  Post-emergence action against HORMU in %: 90%
ALOMY [11]
  Pre-emergence action against ALOMY in %: 100%
AVEFA [12]
  Pre-emergence action against AVEFA in %: 90%
DIGSA [13]
  Pre-emergence action against DIGSA in %: 100%
ECHCG [14]
  Pre-emergence action against ECHCG in %: 100%
SETVI
  Pre-emergence action against SETVI in %: 100%
AMARE [15]
  Pre-emergence action against AMARE in %: 100%
POLCO [16]
  Pre-emergence action against POLCO in %: 90%
STEME [17]
  Pre-emergence action against STEME in %: 90%
VIOTR [18]
  Pre-emergence action against VIOTR in %: 100%
VERPE [19]
  Pre-emergence action against VERPE in %: 100%
HORMU [20]
  Pre-emergence action against HORMU in %: 100%
Harmful plants
  herbicidal efficacy against harmful plants in the case of pre-emergence treatment (in words): good herbicidal efficacy

From patent US20230167088A1, “1-PYRAZINYLPYRAZOLYL-3-OXYALKYL ACIDS AND THEIR DERIVATIVES, AND THEIR USE FOR CONTROL OF UNDESIRED PLANT GROWTH” (BAYER AKTIENGESELLSCHAFT, priority 2020, published 2023)
